Source: patent publication US20230165806A1, “Topical Therapy of Skin Fibrosis and Melanoma” (Board of Regents, The University of Texas System, priority 2021, published 2023)

Assay: Solubility of NAVI in COA ionic liquid
Assay type: physicochemical
From the text: Skin melanoma remains one of the fastest-growing and the most common types of cancer in the United States and worldwide. Although primary melanoma can be removed by surgery if detected, advanced metastatic melanoma cannot be managed by surgery alone and thus an alternative and effective therapeutic approach is required. Direct local application of anti-cancer drugs may effectively treat topical cancerous skin lesions when surgery is not feasible. However, these therapies are severely limited due to the protective nature of the skin and the fact that current topical treatments may cause skin irritation, burning, light sensitivity, scaling, and inflammation. To treat early-stage melanoma, we have developed a topical formulation of Navitoclax (NAVI), a BCL-2 inhibitor that upregulates apoptosis, in association with an ionic liquid composed of Choline Octanoate (COA) at a molar ratio of 1:1. NAVI is a small hydrophobic molecule that solubilizes at 20% (w/v) when dissolved into 50% (DW v/v) COA. […] Therefore, COA-mediated topical delivery of NAVI enhanced transportation through the skin barrier and held the drug in the deeper skin layers for an extended period compared to the control.
The main challenges in treating fibrosis with chemotherapeutics are epidermal layer penetration, the appropriate concentration, and drug retention within the layer for a more extended period. […]

SMILES: CC1(C)CCC(c2ccc(Cl)cc2)=C(CN2CCN(c3ccc(C(=O)NS(=O)(=O)c4ccc(N[C@H](CCN5CCOCC5)CSc5ccccc5)c(S(=O)(=O)C(F)(F)F)c4)cc3)CC2)C1 [NAVI, Navitoclax]
- solubility (choline octanoate (COA) ionic liquid, aqueous with cosolvent or surfactant or cyclodextrin, with COA, read-out: solubility of NAVI increased by COA): ≤ 150 µg/mL
- solubility of NAVI (dissolved into 50% (DW v/v) COA): 20 % (w/v)
